Source: patent US8802597B2, “Herbicidal pyrimidines” (E I du Pont de Nemours and Company, priority 2003, dated 2014)

Tests used:
Format in all cases: in vivo
[1] = test system: blackgrass (Alopecurus myosuroides); test: Test B postemergence; settings: for Blackgrass plant response rating: 125 g ai/ha, scale 0 to 100 (0 no effect, 100 complete control); for Plant response rating, Blackgrass: 500 g ai/ha, scale 0 to 100
From the text: (§1) Seeds selected from barnyardgrass (Echinochloa crus-galli), Surinam grass (Brachiaria decumbens), cocklebur (Xanthium strumarium), corn (Zea mays), crabgrass (Digitaria sanguinalis), giant foxtail (Setaria faberii), lambsquarters (Chenopodium album), morningglory (Ipomoea coccinea), pigweed (Amaranthus retroflexus), velvetleaf (Abutilon theophrasti), and wheat (Triticum aestivum) were planted and treated preemergence with test chemicals formulated in a non-phytotoxic solvent mixture which included a surfactant.
(§2) At the same time, plants selected from these crop and weed species and also blackgrass (Alopecurus myosuroides) and wild oat (Avena fatua) were treated with postemergence applications of test chemicals formulated in the same manner. Plants ranged in height from 2 to 18 cm (1- to 4-leaf stage) for postemergence treatments. Plant species in the flooded paddy test consisted of rice (Oryza sativa), umbrella sedge (Cyperus difformis), duck salad (Heteranthera limosa) and barnyardgrass (Echinochloa crus-galli) grown to the 2-leaf stage for testing. Treated plants and controls were maintained in a greenhouse for 13 to 15 days, after which time all species were compared to controls and visually evaluated. Plant response ratings, summarized in Table B, are based on a scale of 0 to 100 where 0 is no effect and 100 is complete control. A dash (-) response means no test result.

wild oat (Avena fatua) = test: Test B postemergence; settings: for Oat, Wild plant response rating: 125 g ai/ha, scale 0 to 100 (0 no effect, 100 complete control); for Plant response rating, Oat, Wild: 500 g ai/ha, scale 0 to 100
From the text: as §1, §2

[2] = test system: cocklebur (Xanthium strumarium); test: Test B pre/postemergence
From the text: as §1, §2

[3] = test system: pigweed (Amaranthus retroflexus); test: Test B pre/postemergence
From the text: as §1, §2

corn (Zea mays) = test: Test B pre/postemergence
From the text: as §1, §2

[4] = test system: barnyardgrass (Echinochloa crus-galli); test: Test B pre/postemergence
From the text: as §1, §2

[5] = test system: Surinam grass (Brachiaria decumbens); test: Test B pre/postemergence
From the text: as §1, §2

[6] = test system: giant foxtail (Setaria faberii); test: Test B pre/postemergence
From the text: as §1, §2

[7] = test system: velvetleaf (Abutilon theophrasti); test: Test B pre/postemergence
From the text: as §1, §2

[8] = test system: wheat (Triticum aestivum); test: Test B pre/postemergence
From the text: as §1, §2

[9] = test system: lambsquarters (Chenopodium album); test: Test B pre/postemergence; settings: Postemergence; for Lambsquarters plant response rating: 125 g ai/ha, scale 0 to 100 (0 no effect, 100 complete control); for Plant response rating, Lambsquarters: 500 g ai/ha, scale 0 to 100
From the text: as §1, §2

[10] = test system: crabgrass (Digitaria sanguinalis); test: Test B pre/postemergence
From the text: as §1, §2

[11] = test system: morningglory (Ipomoea coccinea); test: Test B pre/postemergence
From the text: as §1, §2

[12] = Postemergence, 125 g ai/ha, scale 0 to 100 (0 no effect, 100 complete control)
[13] = Postemergence, 500 g ai/ha, scale 0 to 100
[14] = Preemergence, 125 g ai/ha, scale 0 to 100 (0 no effect, 100 complete control)
[15] = Preemergence, 500 g ai/ha, scale 0 to 100 (0 no effect, 100 complete control)

## CCOC(=O)c1nc(C2CC2)nc(NOCc2ccccc2)c1Br [Compound 54]
[1]
  Blackgrass plant response rating: 40
  Plant response rating, Blackgrass: 40
Wild oat (Avena fatua)
  Oat, Wild plant response rating: 0
  Plant response rating, Oat, Wild: 40
[2]; [12]
  Cocklebur plant response rating: 20
[2]; [13]
  Plant response rating, Cocklebur: 80
[2]; [14]
  Plant response rating, Cocklebur: 50
[2]; [15]
  Plant response rating, Cocklebur: 90
[3]; [12]
  Pigweed plant response rating: 80
[3]; [13]
  Plant response rating, Pigweed: 90
[3]; [14]
  Plant response rating, Pigweed: 100
[3]; [15]
  Plant response rating, Pigweed: 100
Corn (Zea mays); [12]
  Corn plant response rating: 0
Corn (Zea mays); [13]
  Plant response rating, Corn: 20
Corn (Zea mays); [14]
  Plant response rating, Corn: 0
Corn (Zea mays); [15]
  Plant response rating, Corn: 0
[4]; [12]
  Barnyardgrass plant response rating: 0
[4]; [13]
  Plant response rating, Barnyardgrass: 70
[4]; [14]
  Plant response rating, Barnyardgrass: 0
[4]; [15]
  Plant response rating, Barnyardgrass: 40
[5]; [12]
  Surinam Grass plant response rating: 0
[5]; [13]
  Plant response rating, Surinam Grass: 0
[5]; [14]
  Plant response rating, Surinam Grass: 0
[5]; [15]
  Plant response rating, Surinam Grass: 0
[6]; [12]
  Foxtail, Giant plant response rating: 20
[6]; [13]
  Plant response rating, Foxtail, Giant: 30
[6]; [14]
  Plant response rating, Foxtail, Giant: 0
[6]; [15]
  Plant response rating, Foxtail, Giant: 0
[7]; [12]
  Velvetleaf plant response rating: 50
[7]; [13]
  Plant response rating, Velvetleaf: 60
[7]; [14]
  Plant response rating, Velvetleaf: 10
[7]; [15]
  Plant response rating, Velvetleaf: 80
[8]; [12]
  Wheat plant response rating: 0
[8]; [13]
  Plant response rating, Wheat: 20
[8]; [14]
  Plant response rating, Wheat: 0
[8]; [15]
  Plant response rating, Wheat: 0
[9]
  Lambsquarters plant response rating: 80
  Plant response rating, Lambsquarters: 90
[10]; [12]
  Crabgrass plant response rating: 20
[10]; [13]
  Plant response rating, Crabgrass: 30
[10]; [14]
  Plant response rating, Crabgrass: 0
[10]; [15]
  Plant response rating, Crabgrass: 0
[11]; [12]
  Morningglory plant response rating: 80
[11]; [13]
  Plant response rating, Morningglory: 90
[11]; [14]
  Plant response rating, Morningglory: 0

## CCOC(=O)c1nc(C2CC2)nc(NOC(C)(C)C)c1Br [Compound 55]
[1]
  Blackgrass plant response rating: 30
  Plant response rating, Blackgrass: 40
Wild oat (Avena fatua)
  Oat, Wild plant response rating: 0
  Plant response rating, Oat, Wild: 20
[2]; [12]
  Cocklebur plant response rating: 20
[2]; [13]
  Plant response rating, Cocklebur: 80
[2]; [14]
  Plant response rating, Cocklebur: 70
[2]; [15]
  Plant response rating, Cocklebur: 90
[3]; [12]
  Pigweed plant response rating: 70
[3]; [13]
  Plant response rating, Pigweed: 80
[3]; [14]
  Plant response rating, Pigweed: 80
[3]; [15]
  Plant response rating, Pigweed: 100
Corn (Zea mays); [12]
  Corn plant response rating: 0
Corn (Zea mays); [13]
  Plant response rating, Corn: 20
Corn (Zea mays); [14]
  Plant response rating, Corn: 0
Corn (Zea mays); [15]
  Plant response rating, Corn: 0
[4]; [12]
  Barnyardgrass plant response rating: 0
[4]; [13]
  Plant response rating, Barnyardgrass: 50
[4]; [14]
  Plant response rating, Barnyardgrass: 0
[4]; [15]
  Plant response rating, Barnyardgrass: 60
[5]; [12]
  Surinam Grass plant response rating: 0
[5]; [13]
  Plant response rating, Surinam Grass: 0
[5]; [14]
  Plant response rating, Surinam Grass: 0
[5]; [15]
  Plant response rating, Surinam Grass: 50
[6]; [12]
  Foxtail, Giant plant response rating: 20
[6]; [13]
  Plant response rating, Foxtail, Giant: 20
[6]; [14]
  Plant response rating, Foxtail, Giant: 0
[6]; [15]
  Plant response rating, Foxtail, Giant: 0
[7]; [12]
  Velvetleaf plant response rating: 10
[7]; [13]
  Plant response rating, Velvetleaf: 30
[7]; [14]
  Plant response rating, Velvetleaf: 50
[7]; [15]
  Plant response rating, Velvetleaf: 90
[8]; [12]
  Wheat plant response rating: 0
[8]; [13]
  Plant response rating, Wheat: 0
[8]; [14]
  Plant response rating, Wheat: 0
[8]; [15]
  Plant response rating, Wheat: 70
[9]
  Lambsquarters plant response rating: 70
  Plant response rating, Lambsquarters: 90
[10]; [12]
  Crabgrass plant response rating: 0
[10]; [13]
  Plant response rating, Crabgrass: 30
[10]; [14]
  Plant response rating, Crabgrass: 50
[10]; [15]
  Plant response rating, Crabgrass: 60
[11]; [12]
  Morningglory plant response rating: 80
[11]; [13]
  Plant response rating, Morningglory: 90
[11]; [14]
  Plant response rating, Morningglory: 80
[11]; [15]
  Plant response rating, Morningglory: 100

## CCOC(=O)c1nc(C2CC2)nc(N2CCCC2)c1Br [Compound 56]
[1]
  Blackgrass plant response rating: 0
  Plant response rating, Blackgrass: 20
Wild oat (Avena fatua)
  Oat, Wild plant response rating: 0
  Plant response rating, Oat, Wild: 20
[2]; [12]
  Cocklebur plant response rating: 0
[2]; [13]
  Plant response rating, Cocklebur: 20
[2]; [14]
  Plant response rating, Cocklebur: 0
[2]; [15]
  Plant response rating, Cocklebur: 30
[3]; [12]
  Pigweed plant response rating: 50
[3]; [13]
  Plant response rating, Pigweed: 70
[3]; [15]
  Plant response rating, Pigweed: 80
Corn (Zea mays); [12]
  Corn plant response rating: 0
Corn (Zea mays); [13]
  Plant response rating, Corn: 0
Corn (Zea mays); [14]
  Plant response rating, Corn: 0
Corn (Zea mays); [15]
  Plant response rating, Corn: 0
[4]; [12]
  Barnyardgrass plant response rating: 0
[4]; [13]
  Plant response rating, Barnyardgrass: 30
[4]; [14]
  Plant response rating, Barnyardgrass: 0
[4]; [15]
  Plant response rating, Barnyardgrass: 0
[5]; [12]
  Surinam Grass plant response rating: 0
[5]; [13]
  Plant response rating, Surinam Grass: 0
[5]; [14]
  Plant response rating, Surinam Grass: 0
[5]; [15]
  Plant response rating, Surinam Grass: 0
[6]; [12]
  Foxtail, Giant plant response rating: 0
[6]; [13]
  Plant response rating, Foxtail, Giant: 0
[6]; [14]
  Plant response rating, Foxtail, Giant: 0
[6]; [15]
  Plant response rating, Foxtail, Giant: 0
[7]; [12]
  Velvetleaf plant response rating: 0
[7]; [13]
  Plant response rating, Velvetleaf: 0
[7]; [14]
  Plant response rating, Velvetleaf: 0
[7]; [15]
  Plant response rating, Velvetleaf: 30
[8]; [12]
  Wheat plant response rating: 0
[8]; [13]
  Plant response rating, Wheat: 0
[8]; [14]
  Plant response rating, Wheat: 0
[8]; [15]
  Plant response rating, Wheat: 0
[9]
  Lambsquarters plant response rating: 20
  Plant response rating, Lambsquarters: 30
[10]; [12]
  Crabgrass plant response rating: 0
[10]; [13]
  Plant response rating, Crabgrass: 0
[10]; [14]
  Plant response rating, Crabgrass: 0
[10]; [15]
  Plant response rating, Crabgrass: 0
[11]; [12]
  Morningglory plant response rating: 0
[11]; [13]
  Plant response rating, Morningglory: 50
[11]; [15]
  Plant response rating, Morningglory: 20

## CCOC(=O)c1nc(C2CC2)nc(NOCC(=O)O)c1Br [Compound 125]
[1]
  Blackgrass plant response rating: 0
  Plant response rating, Blackgrass: 20
Wild oat (Avena fatua)
  Oat, Wild plant response rating: 0
  Plant response rating, Oat, Wild: 20
[2]; [12]
  Cocklebur plant response rating: 40
[2]; [13]
  Plant response rating, Cocklebur: 60
[2]; [14]
  Plant response rating, Cocklebur: 30
[2]; [15]
  Plant response rating, Cocklebur: 90
[3]; [12]
  Pigweed plant response rating: 60
[3]; [13]
  Plant response rating, Pigweed: 60
[3]; [14]
  Plant response rating, Pigweed: 30
[3]; [15]
  Plant response rating, Pigweed: 90
Corn (Zea mays); [12]
  Corn plant response rating: 0
Corn (Zea mays); [13]
  Plant response rating, Corn: 0
Corn (Zea mays); [14]
  Plant response rating, Corn: 0
Corn (Zea mays); [15]
  Plant response rating, Corn: 0
[4]; [12]
  Barnyardgrass plant response rating: 0
[4]; [13]
  Plant response rating, Barnyardgrass: 70
[4]; [14]
  Plant response rating, Barnyardgrass: 0
[5]; [12]
  Surinam Grass plant response rating: 0
[5]; [13]
  Plant response rating, Surinam Grass: 10
[5]; [14]
  Plant response rating, Surinam Grass: 0
[5]; [15]
  Plant response rating, Surinam Grass: 0
[6]; [12]
  Foxtail, Giant plant response rating: 0
[6]; [13]
  Plant response rating, Foxtail, Giant: 40
[6]; [14]
  Plant response rating, Foxtail, Giant: 0
[6]; [15]
  Plant response rating, Foxtail, Giant: 0
[7]; [12]
  Velvetleaf plant response rating: 0
[7]; [13]
  Plant response rating, Velvetleaf: 50
[7]; [14]
  Plant response rating, Velvetleaf: 10
[7]; [15]
  Plant response rating, Velvetleaf: 90
[8]; [12]
  Wheat plant response rating: 0
[8]; [13]
  Plant response rating, Wheat: 0
[8]; [14]
  Plant response rating, Wheat: 0
[8]; [15]
  Plant response rating, Wheat: 0
[9]
  Lambsquarters plant response rating: 60
  Plant response rating, Lambsquarters: 70
[10]; [12]
  Crabgrass plant response rating: 20
[10]; [13]
  Plant response rating, Crabgrass: 30
[10]; [14]
  Plant response rating, Crabgrass: 0
[10]; [15]
  Plant response rating, Crabgrass: 100
[11]; [12]
  Morningglory plant response rating: 70
[11]; [13]
  Plant response rating, Morningglory: 90
[11]; [14]
  Plant response rating, Morningglory: 30
[11]; [15]
  Plant response rating, Morningglory: 100
